According to publication PMC12152883, “Bile acids inhibit equilibrative adenosine transport to alter adenosine receptor signaling in cholestasis” (The Journal of Biological Chemistry, 2025):
“And” between values parts separate entries of the source, which are not always exact repeats. Equal entries are not always repeated.

How the values were obtained:
Format in all cases: cell-based
ENT1 = biological target: T1, ENT1 (Homo sapiens, UniProt Q99808); assay: Radiolabeled BA transport in ENT1 mRNA-injected Xenopus oocytes; conditions: 3H-labelled BA, Na+-containing buffer, pH 7.4
T1 construct: The complete ORF of ENT1 (amplified using forward primer); expressed in transfected cells; host or cells: Xenopus laevis oocytes injected with in vitro-transcribed capped mRNA from pOX-hENT1
T1 sequence (Q99808 1-456): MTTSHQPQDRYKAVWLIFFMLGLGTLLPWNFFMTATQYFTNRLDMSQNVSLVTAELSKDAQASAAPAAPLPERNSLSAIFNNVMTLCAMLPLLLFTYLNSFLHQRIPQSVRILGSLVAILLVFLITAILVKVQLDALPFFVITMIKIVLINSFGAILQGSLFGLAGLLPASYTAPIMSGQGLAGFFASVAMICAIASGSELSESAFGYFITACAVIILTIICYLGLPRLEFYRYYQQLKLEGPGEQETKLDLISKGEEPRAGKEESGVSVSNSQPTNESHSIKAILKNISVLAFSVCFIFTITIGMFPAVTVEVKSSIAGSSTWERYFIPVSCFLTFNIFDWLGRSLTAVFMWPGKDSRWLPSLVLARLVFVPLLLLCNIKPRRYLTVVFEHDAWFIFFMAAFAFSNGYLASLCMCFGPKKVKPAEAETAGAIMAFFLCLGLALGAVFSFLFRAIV
Procedure: (§1) We used a Xenopus oocyte-based transport assay that was previously used to examine BA transport by plasma membrane–directed ENT3 with a truncated N-terminus (that harbors lysosomal targeting motif) to experimentally verify whether ENT2 is capable of translocating BAs across the cell membrane ([24]). We tested both ENT1 and ENT2 along with CNT2, a purine nucleoside-specific concentrative transporter, to investigate their capacities to transport radiolabeled BAs. […] Transport was measured at pH 7.4, which is the closest pH to the pH of the extracellular fluid in which cells are exposed to solutes such as BAs to conduct plasma membrane transport ([29]).
(§2) The generated pOX expression constructs were linearized with either the Not1 or Sac1 restriction enzymes. The digested products were purified via phenol‒chloroform extraction. The mRNAs were synthesized using mMESSAGE mMACHINE (Ambion) transcription kits according to the manufacturer’s instructions. The mRNAs were purified via lithium precipitation. Oocytes were procured from Ecocyte. Prior to experiments, procured oocytes were defolliculated by treating with collagenase A-OR II solution followed by washing with Barth’s solution. Following microscopic verification, selected oocytes were incubated to recover overnight at 25 °C in a shaker incubator. Fifty nanoliters (400–800 ng/μl) of equal amounts of mRNAs were injected into defolliculated oocytes the next day. Expression of plasmids was analyzed after RNA isolation from oocyte extracts and conducting qPCR analysis with gene-specific primers as described earlier ([30]). The injected oocytes were incubated at 15 °C for 24 h before transport assays were performed. The uptake of radiolabeled substrates was measured after a 30 min incubation in transport buffer (100 mM NaCl, 2 mM KCl, 1 mM CaCl2, 1 mM MgCl2, and 10 mM Hepes, pH 7.4) at room temperature. […] Individual oocytes were shaken overnight in 10% SDS for complete dissolution, and then the radioactivity was quantified with a Beckman liquid scintillation counter. […]

CNT2 = biological target: T2, CNT2 (Homo sapiens, UniProt O43868); assay: Radiolabeled BA transport in CNT2 mRNA-injected Xenopus oocytes; conditions: 3H-labelled BA, Na+-containing buffer, pH 7.4
T2 construct: expressed in transfected cells; host or cells: Xenopus laevis oocytes injected with in vitro-transcribed capped mRNA
T2 sequence (O43868 1-658): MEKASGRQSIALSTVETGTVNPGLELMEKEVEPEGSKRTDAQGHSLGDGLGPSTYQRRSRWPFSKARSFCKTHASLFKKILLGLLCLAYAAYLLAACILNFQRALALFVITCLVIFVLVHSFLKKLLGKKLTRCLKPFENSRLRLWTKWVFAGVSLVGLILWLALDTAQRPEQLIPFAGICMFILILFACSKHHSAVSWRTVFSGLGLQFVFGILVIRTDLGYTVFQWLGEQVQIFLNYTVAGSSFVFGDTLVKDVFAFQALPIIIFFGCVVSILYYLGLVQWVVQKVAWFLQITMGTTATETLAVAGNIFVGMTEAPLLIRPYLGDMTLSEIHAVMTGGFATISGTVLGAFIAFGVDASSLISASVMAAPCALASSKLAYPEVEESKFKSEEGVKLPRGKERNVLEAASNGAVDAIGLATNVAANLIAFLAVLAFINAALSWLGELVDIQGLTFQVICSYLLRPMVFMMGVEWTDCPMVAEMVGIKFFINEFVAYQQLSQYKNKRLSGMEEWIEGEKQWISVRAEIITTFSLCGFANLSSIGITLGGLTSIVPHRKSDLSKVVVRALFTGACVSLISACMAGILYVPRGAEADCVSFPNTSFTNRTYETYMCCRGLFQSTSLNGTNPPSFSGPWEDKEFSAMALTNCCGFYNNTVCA
Procedure: as §1, §2

HeLa cell line = assay: 3H-nucleoside uptake inhibition by BAs in HeLa cell line; conditions: BA 100 μM; for % Inhibition of Ado uptake, HeLa cell line, Sodium buffer / % Inhibition of Ado uptake, HeLa cell line, Sodium-free buffer: 3H-Ado 0.02 μM; for extent of inhibition of guanosine transport, HeLa cells: 3H-guanosine 0.02 μM, Na+-free
Procedure: The bars represent the mean ± SD (n = 3). A representative experiment from 3 to 5 independent experiments is presented. Statistical analysis was performed using one-way ANOVA with Dunnett’s multiple comparisons test; ∗p < 0.032, ∗∗p < 0.0021, ∗∗∗p < 0.0002.
HeLa (CCL-2) and HepG2 (HB_8065) were procured from ATCC. Both cell lines were cultured in Eagle's minimum essential medium and Dulbecco's modified Eagle's medium, respectively, supplemented with 10% fetal bovine serum and penicillin-streptomycin (1X). After cells were tested free for mycoplasma contamination, they were plated in 24-well plates, and transport assays were conducted when the cells were 80% confluent. The cells were briefly rinsed with PBS, and then the uptake of radiolabeled substrates was measured after a 5 min incubation in sodium containing (130 mM NaCl, 20 mM Tris–HCl, 3 mM K2HPO4, 1 mM MgCl2.6H2O, 2 mM CaCl2, 5 mM glucose, pH 7.4) or sodium-free (130 mM N-methyl-D-glucamin, 20 mM Tris–HCl, 3 mM K2HPO4, 1 mM MgCl2.6H2O, 2 mM CaCl2, 5 mM glucose, pH 7.4) transport buffers at 37 °C. Uptake was terminated by washing the cells three times with ice-cold arrest buffer containing 20 mM uridine. The cells were shaken for 30 min in 10% SDS for complete dissolution, after which the radioactivity was quantified with a Beckman liquid scintillation counter. The data are presented as the mean ± SD (n = 3).

Compound	transport of BA by ENT1 (ENT1)	transport of BA by CNT2 (CNT2)	% Inhibition of Ado uptake, HeLa cell line, Sodium buffer (HeLa cell line) [%]	% Inhibition of Ado uptake, HeLa cell line, Sodium-free buffer (HeLa cell line)	extent of inhibition of guanosine transport, HeLa cells (HeLa cell line) [%]
C[C@H](CCC(=O)O)[C@H]1CC[C@H]2[C@@H]3[C@H](O)C[C@@H]4C[C@H](O)CC[C@]4(C)[C@H]3C[C@H](O)[C@]12C [CA, cholic acid]	incapable of transporting	incapable of transporting	52.17 ± 0.51	48.8% and 48.78 ± 0.52%	16.1
C[C@H](CCC(=O)O)[C@H]1CC[C@H]2[C@@H]3CC[C@@H]4C[C@H](O)CC[C@]4(C)[C@H]3C[C@H](O)[C@]12C [DCA, deoxycholic acid]	incapable of transporting	incapable of transporting	41.33 ± 0.10	67.86 ± 1.67%	0
C[C@H](CCC(=O)NCCS(=O)(=O)O)[C@H]1CC[C@H]2[C@@H]3[C@H](O)C[C@@H]4C[C@H](O)CC[C@]4(C)[C@H]3C[C@H](O)[C@]12C [TCA, taurocholic acid]	incapable of transporting	incapable of transporting	59.20 ± 0.31	67.21 ± 0.08%	0
